From PubChem BioAssay AID1919017 (Molecular Pharmacology Branch, DTP, NCI, 2023)
pIC50: −log10 of the molar value. “And” between values parts separate entries of the source, which are not always exact repeats. Equal entries are not always repeated.

System: SW1271 complex spheroids with HUVEC/MSC, growth, % test/control
Assay: Anticancer human tumor SW1271 cell line growth inhibition [AhR];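 also: spheroids exposed to agents for 7 days before readout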
Settings: for viability, T/C: stronger effect = lower value
Summary of the method: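 Complex tumor spheroids co-cultured with HUVEC and human MSC stroma; AhR antagonists tested in combination with standard-of-care and investigational agents. Top concentration at or near clinical Cmax (else 10 microM), half-log dilutions; growth expressed as percent test/control.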

[1] = curve of first compound, second compound 0.1 µM
[2] = curve of first compound, second compound 0.316 µM
[3] = curve of first compound, second compound 1 µM
[4] = curve of first compound, second compound 3.16 µM
[5] = curve of first compound, second compound 10 µM
[6] = second compound 0.1 µM, first compound 0.00949 µM
[7] = second compound 0.1 µM, first compound 0.03 µM
[8] = second compound 0.1 µM, first compound 0.0949 µM
[9] = second compound 0.1 µM, first compound 0.3 µM
[10] = second compound 0.316 µM, first compound 0.00949 µM
[11] = second compound 0.316 µM, first compound 0.03 µM
[12] = second compound 0.316 µM, first compound 0.0949 µM
[13] = second compound 0.316 µM, first compound 0.3 µM
[14] = second compound 1 µM, first compound 0.00949 µM
[15] = second compound 1 µM, first compound 0.03 µM
[16] = second compound 1 µM, first compound 0.0949 µM
[17] = second compound 1 µM, first compound 0.3 µM
[18] = second compound 3.16 µM, first compound 0.00949 µM
[19] = second compound 3.16 µM, first compound 0.03 µM
[20] = second compound 3.16 µM, first compound 0.0949 µM
[21] = second compound 3.16 µM, first compound 0.3 µM
[22] = second compound 10 µM, first compound 0.00949 µM
[23] = second compound 10 µM, first compound 0.03 µM
[24] = second compound 10 µM, first compound 0.0949 µM
[25] = second compound 10 µM, first compound 0.3 µM

CCN(c1cc(-c2ccc(CN3CCOCC3)cc2)cc(C(=O)NCc2c(C)cc(C)[nH]c2=O)c1C)C1CCOCC1 + Cc1ccccc1N=Nc1ccc(NC(=O)c2ccnn2C)c(C)c1 showed a pIC50 [1] of less than 5.52, a pIC50 [2] of less than 5.52 and a pIC50 [3] of less than 5.52. For the same compound, the pIC50 [4] was less than 5.52, the pIC50 [5] was less than 5.52 and the viability, T/C [6] was 115%. It also gave a viability, T/C [7] of 111%, a viability, T/C [8] of 117% and a viability, T/C [9] of 107%. It also gave a viability, T/C (second compound 0.1 µM, first compound 0.949 µM) of 118%, a viability, T/C (second compound 0.1 µM, first compound 3 µM) of 110% and a viability, T/C [10] of 115%. The viability, T/C [11] was 118%, the viability, T/C [12] was 106% and the viability, T/C [13] was 123%. It also gave a viability, T/C (second compound 0.316 µM, first compound 0.949 µM) of 105%, a viability, T/C (second compound 0.316 µM, first compound 3 µM) of 107% and a viability, T/C [14] of 117%. For the same compound, the viability, T/C [15] was 110%, the viability, T/C [16] was 122% and the viability, T/C [17] was 122%. It also gave a viability, T/C (second compound 1 µM, first compound 0.949 µM) of 98%, a viability, T/C (second compound 1 µM, first compound 3 µM) of 88% and a viability, T/C [18] of 99.3%. It also gave a viability, T/C [19] of 114%, a viability, T/C [20] of 102% and a viability, T/C [21] of 148%. The viability, T/C (second compound 3.16 µM, first compound 0.949 µM) was 120%, the viability, T/C (second compound 3.16 µM, first compound 3 µM) was 108% and the viability, T/C [22] was 96.5%. For the same compound, the viability, T/C [23] was 103%, the viability, T/C [24] was 91.7% and the viability, T/C [25] was 111%. For the same compound, the viability, T/C (second compound 10 µM, first compound 0.949 µM) was 103% and the viability, T/C (second compound 10 µM, first compound 3 µM) was 118%.
COc1ccc([C@@H](O)c2cc(-c3ncnc4cc(N5CCOCC5)ccc34)c(F)cc2Cl)nn1 + Cc1cncc(-c2nc(NCCc3c[nH]c4ccccc34)c3ncn(C(C)C)c3n2)c1 gave a pIC50 [1] of 5.73, a pIC50 [2] of 5.41 and a pIC50 [3] of 5.54. For the same compound, the pIC50 [4] was 5.30, the pIC50 [5] was greater than 7.50 and the viability, T/C (second compound 0.1 µM, first compound 0.0316 µM) was 82.7%. For the same compound, the viability, T/C (second compound 0.1 µM, first compound 0.1 µM) was 93.6%, the viability, T/C (second compound 0.1 µM, first compound 0.316 µM) was 83.2% and the viability, T/C (second compound 0.1 µM, first compound 1 µM) was 56.7%. The viability, T/C (second compound 0.1 µM, first compound 3.16 µM) was 47.9%, the viability, T/C (second compound 0.1 µM, first compound 10 µM) was 36.7% and the viability, T/C (second compound 0.316 µM, first compound 0.0316 µM) was 87.3%. For the same compound, the viability, T/C (second compound 0.316 µM, first compound 0.1 µM) was 96.7%, the viability, T/C (second compound 0.316 µM, first compound 0.316 µM) was 75.1% and the viability, T/C (second compound 0.316 µM, first compound 1 µM) was 72.7%. The viability, T/C (second compound 0.316 µM, first compound 3.16 µM) was 52.2%, the viability, T/C (second compound 0.316 µM, first compound 10 µM) was 36.9% and the viability, T/C (second compound 1 µM, first compound 0.0316 µM) was 91.3%. For the same compound, the viability, T/C (second compound 1 µM, first compound 0.1 µM) was 87.3%, the viability, T/C (second compound 1 µM, first compound 0.316 µM) was 93.3% and the viability, T/C (second compound 1 µM, first compound 1 µM) was 68.2%. It also gave a viability, T/C (second compound 1 µM, first compound 3.16 µM) of 50.8%, a viability, T/C (second compound 1 µM, first compound 10 µM) of 36.3% and a viability, T/C (second compound 3.16 µM, first compound 0.0316 µM) of 81.6%. It also gave a viability, T/C (second compound 3.16 µM, first compound 0.1 µM) of 99%, a viability, T/C (second compound 3.16 µM, first compound 0.316 µM) of 81.9% and a viability, T/C (second compound 3.16 µM, first compound 1 µM) of 70.1%. For the same compound, the viability, T/C (second compound 3.16 µM, first compound 3.16 µM) was 55.8%, the viability, T/C (second compound 3.16 µM, first compound 10 µM) was 43.2% and the viability, T/C (second compound 10 µM, first compound 0.0316 µM) was 45.5%. It also gave a viability, T/C (second compound 10 µM, first compound 0.1 µM) of 43.3%, a viability, T/C (second compound 10 µM, first compound 0.316 µM) of 41.5% and a viability, T/C (second compound 10 µM, first compound 1 µM) of 36%. The viability, T/C (second compound 10 µM, first compound 3.16 µM) was 22.1% and the viability, T/C (second compound 10 µM, first compound 10 µM) was 18.1%.
CC(C)CC(NC(=O)C(Cc1ccccc1)NC(=O)c1cnccn1)B(O)O (configuration not stated) + Cc1ccccc1N=Nc1ccc(NC(=O)c2ccnn2C)c(C)c1 gave a pIC50 [1] of 8.26, a pIC50 [2] of 8.27 and a pIC50 [3] of 8.24. It also gave a pIC50 [4] of 8.24, a pIC50 [5] of 8.17 and a viability, T/C (second compound 0.1 µM, first compound 0.000949 µM) of 105%. For the same compound, the viability, T/C (second compound 0.1 µM, first compound 0.003 µM) was 97%, the viability, T/C [6] was 7.2% and the viability, T/C [7] was 1.26%. It also gave a viability, T/C [8] of 0.41%, a viability, T/C [9] of 0.31% and a viability, T/C (second compound 0.316 µM, first compound 0.000949 µM) of 91.4%. For the same compound, the viability, T/C (second compound 0.316 µM, first compound 0.003 µM) was 90.3%, the viability, T/C [10] was 11.3% and the viability, T/C [11] was 0.73%. The viability, T/C [12] was 11.2%, the viability, T/C [13] was 6.11% and the viability, T/C (second compound 1 µM, first compound 0.000949 µM) was 123%. For the same compound, the viability, T/C (second compound 1 µM, first compound 0.003 µM) was 101%, the viability, T/C [14] was 10.2% and the viability, T/C [15] was 1.95%. The viability, T/C [16] was 1.1%, the viability, T/C [17] was 0.56% and the viability, T/C (second compound 3.16 µM, first compound 0.000949 µM) was 92.9%. The viability, T/C (second compound 3.16 µM, first compound 0.003 µM) was 89.4%, the viability, T/C [18] was 19.4% and the viability, T/C [19] was 1.27%. For the same compound, the viability, T/C [20] was 0.6%, the viability, T/C [21] was 0.68% and the viability, T/C (second compound 10 µM, first compound 0.000949 µM) was 93.1%. It also gave a viability, T/C (second compound 10 µM, first compound 0.003 µM) of 99.5%, a viability, T/C [22] of 30.8% and a viability, T/C [23] of 2.17%. For the same compound, the viability, T/C [24] was 0.87% and the viability, T/C [25] was 0.59%.
COc1ccc([C@@H](O)c2cc(-c3ncnc4cc(N5CCOCC5)ccc34)c(F)cc2Cl)nn1 was tested, and the viability, T/C (compound 0.0316 µM) was 80.5% and 93.2% and 107%, the viability, T/C (compound 0.1 µM) was 96.4% and 73% and 85.2% and the viability, T/C (compound 0.316 µM) was 76.1% and 70.2% and 81%. For the same compound, the viability, T/C (compound 1 µM) was 62.3% and 61.5% and 59.7%, the viability, T/C (compound 3.16 µM) was 45.4% and 57% and 39.5% and the viability, T/C (compound 10 µM) was 25.2% and 27.9% and 28.6%. The pIC50 (curve of compound) was 5.66 and 5.56 and 5.72.
